Consider one compound from patent US8557800B2, “Sphingosine kinase inhibitors” (Apogee Biotechnology Corporation, priority 2005, dated 2013).

Series [1] has as its system MCF-10A non-transformed human breast epithelial cells. The series is described as follows: Cytotoxicity, SRB binding assay. In kind it is cell-based. Particulars: inhibition of cell proliferation, 48 h, read-out: MCF-10A IC50. An outline of the steps:
(§1)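 Cells exposed to varying compound doses for 48 h, then survival measured by sulforhodamine B staining. IC50 is the concentration giving 50% proliferation inhibition, in μM, as mean±sd of replicate trials.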

Series [2] concerns MCF-7 human breast adenocarcinoma cells. The series is described as follows: Cytotoxicity, SRB binding assay. Conditions: MCF7, inhibition of cell proliferation, 48 h, read-out: MCF-7 IC50. In kind it is cell-based. An outline of the steps: as §1
(Sulforhodamine B stains cellular protein and so reports cell mass.)

In a further series the test system is VCAM-1. The series is described as follows: TNFα-induced adhesion molecule expression, Western analysis. Conditions: human endothelial cells, TNFα 100 ng/mL 6 hours, 25 μM compound. Format: cell-based. As for the experimental part:
(§2) Like endothelial cells in the body, HUVECs will proliferate in response to several growth factors, and will respond to inflammatory cytokines such as TNFα and IL-1β. Western analyses were conducted with human endothelial cells to evaluate the effects of the SK inhibitors on signaling proteins known to be regulated by TNFα. In these experiments, the cells were serum-starved for 24 hours and then exposed to TNFα (100 ng/mL) for 6 hours. Cell lysates from treated cells were assayed for the adhesion molecules ICAM-1 and VCAM-1. TNFα caused marked increases in the expression levels of adhesion proteins involved in leukocyte recruitment, including ICAM-1 and VCAM-1.

A further series relates to ICAM-1. Described as above. Format: cell-based. Conditions: human endothelial cells, TNFα 100 ng/mL 6 hours, 25 μM compound. As for the experimental part:
as §2

For series [3], the system named is Cox-2 activity in IEC6 rat intestinal epithelial cells. The series is described as follows: TNFα-induced PGE2 production, ELISA. In kind it is cell-based. Particulars: 100 ng of TNFα/mL 18 hours. As for the experimental part: (§3) FIG. 6. Inhibition of TNFα-induced Cox-2 activity by Compound 62. Rat IEC6 cells (Panel A) or human endothelial cells (Panel B) were incubated for 18 hours with dimethylsulfoxide (DMSO) as a solvent control, or 100 ng of TNFα/mL in the presence of DMSO or […] of Compound 62. Levels of PGE2 secreted into the medium were quantified by ELISA. Values represent the mean±sd for triplicate samples in a typical experiment.
(§4) To determine the effects of the SK inhibitors on Cox-2 activity, an ELISA assay was used to measure PGE2 production by IEC6 rat intestinal epithelial cells and human endothelial cells treated with TNFα.
In general terms: ELISA stands for enzyme-linked immunosorbent assay.

For series [4], the system named is Cox-2 activity in human endothelial cells. The series is described as follows: TNFα-induced PGE2 production, ELISA. Format: cell-based. Particulars: 100 ng of TNFα/mL 18 hours. As to the method: as §3, §4
The next series relates to NFκB. The series is described as follows: TNFα-induced NFκB reporter cell line. In kind it is cell-based. Conditions: fibroblasts, TNFα 6 hours. As to the method:
FIG. 5. Inhibition of TNFα-induced activation of NFκB by Compound 62. Fibroblasts transfected with a TNFα-responsive promoter linked to luciferase were treated with the indicated concentrations of Compound 62 and then treated with TNFα for 6 hours. The amount of luciferase expressed by the cells was then measured by luminescence. Values represent the mean±sd luciferase activity in triplicate samples in a typical experiment.
The excellent aqueous solubility of Compound 62 allowed it to be evaluated in an NFκB reporter cell line (FIG. 5). Fibroblasts transfected with an NFκB response element linked to luciferase produce high levels of luciferase upon exposure to TNFα.

The subject of a further series is DU145 (prostate). The series is described as follows: Human tumor cell line panel, sulforhodamine B. In kind it is cell-based. Particulars: DU-145, 48 hours, mean ± sd.
The next series in a line: physchem. Conditions: aqueous with cosolvent or surfactant or cyclodextrin.
Series [5] deals with retinal vascular permeability in diabetic rats. The series is described as follows: Diabetic retinopathy, streptozotocin rats. In kind it is in vivo, rat. Particulars: 25 or 75 mg/kg ip 5 days per week, Day 45 to Day 87. As to the method:
Male Sprague-Dawley rats weighing 150-175 g were used. Diabetes was produced by intraperitoneal injection of streptozotocin (65 mg/kg in citrate buffer) after overnight fasting. Sham-injected non-diabetic animals were also carried as controls. Blood glucose was measured three days post-injection and animals with blood glucose over 250 mg/dL were used as diabetic rats for the study. Blood glucose levels and body weights were monitored weekly throughout the study. On Day 45, retinal vascular permeability was measured in a group of control and diabetic rats (Antonetti et al., 1998, Diabetes 47: 1953, Barber et al., 2005, Invest Ophthalmol Vis Sci 46: 2210). […] Sections were dewaxed and viewed with an Olympus OM-2 fluorescence microscope fitted with a Sony CLD video camera. Fluorescence intensities of digital images were measured using Leica Confocal Software (Version 2.61, build 1538, LCS Lite, 2004). The average retinal intensity for each eye was then normalized to non-injected controls analyzed in the same manner and to the plasma fluorescence of the animal. Through serial sectioning of the eye, this technique enables quantification of varied vascular permeability in the retina (Antonetti et al., 1998, Diabetes 47: 1953, Barber et al., 2005, Ibid.). […]

The test system of the next series is Caco-2 (colon). The series is described as follows: Human tumor cell line panel, sulforhodamine B. Format: cell-based. Conditions: 48 hours, mean ± sd.
A further series deals with Hep-G2 (liver). The series is described as follows: Human tumor cell line panel, sulforhodamine B. Format: cell-based. Particulars: HepG2, 48 hours, mean ± sd.

Each structure is given as a SMILES string. Several values for one entry are separate records, joined by “and”; a condition that tells them apart may be missing. Identical values can stand only once. Bounds are passed on as bounds.

One may read the IC50 as the midpoint of a concentration-inhibition curve. For orientation: solubility means the dissolved amount per volume that the medium holds. Read a low solubility as little dissolved substance. In the case of `O=C(NCc1ccncc1)C12CC3CC(C1)CC(c1ccc(Cl)cc1)(C3)C2` [Compound 62, 3-(4-Chloro-phenyl)-adamantane-1-carboxylic acid (pyridin-4-ylmethyl)-amide], the IC50 in [1] turned out to be 21 µM; in series [2], 17 µM; with DU145 (prostate) it was 21.9 ± 1.5 µM; with Caco-2 (colon), 11.8 ± 5.6 µM; in the series with Hep-G2 (liver), 6 ± 2.6 µM. Besides, the “TNFα induction of VCAM-1” value in the series on VCAM-1 is reported as “completely abrogated”. The “TNFα induction of ICAM-1” value in the series on ICAM-1 is “completely abrogated”. The “induction of Cox-2 activity by TNFα (PGE2 production)” value in series [3] and in [4] was “strongly suppressed” in each case. Moreover, in the series on NFκB, the “activation of NFκB by TNFα (luciferase)” value was “dose-dependently suppressed”. For the same compound, the solubility in “physchem” was ≥ 15000 µg/mL and 30000 µM to 40000 µM. Besides, the “FITC-BSA leakage into the retina vs untreated diabetic rats” value in [5] is on record as “substantially reduced”.
